# According to ChEMBL document CHEMBL3045707, “Synthesis of new 3-aryl-4-(3-aryl-4,5-dihydro-1H-pyrazol-5-yl)-1-phenyl-1H-pyrazole derivatives as potential antimicrobial agents” (2013):
# Tests used:
# Type in all cases: functional
# Candida albicans [1] = experiment: Antimicrobial activity against Candida albicans MTCC 227 assessed as diameter of growth inhibition zone at 500 ug/ml after 72 hr by agar well plate method; conditions: MTCC 227, 72 h, read-out: DIZ
# Aspergillus flavus [2] = experiment: Antimicrobial activity against Aspergillus flavus assessed as diameter of growth inhibition zone at 500 ug/ml after 72 hr by agar well plate method; conditions: read-out: DIZ
# Staphylococcus aureus [3] = experiment: Antimicrobial activity against Staphylococcus aureus ATCC 25923 assessed as diameter of growth inhibition zone at 1000 ug/ml after 24 hr by agar well plate method; conditions: ATCC 25923, 24 h, read-out: DIZ
# [4] = tested on: Chrysosporium keratinophilum; experiment: Antimicrobial activity against Chrysosporium keratinophilum assessed as diameter of growth inhibition zone at 1000 ug/ml after 72 hr by agar well plate method; conditions: read-out: DIZ
# [5] = tested on: Chrysosporium keratinophilum; experiment: Antimicrobial activity against Chrysosporium keratinophilum assessed as diameter of growth inhibition zone at 500 ug/ml after 72 hr by agar well plate method; conditions: read-out: DIZ
# Candida albicans [6] = experiment: Antimicrobial activity against Candida albicans MTCC 227 assessed as diameter of growth inhibition zone at 1000 ug/ml after 72 hr by agar well plate method; conditions: MTCC 227, 72 h, read-out: DIZ
# Pseudomonas aeruginosa [7] = experiment: Antimicrobial activity against Pseudomonas aeruginosa ATCC 27853 assessed as diameter of growth inhibition zone at 500 ug/ml after 24 hr by agar well plate method; conditions: ATCC 27853, 24 h, read-out: DIZ
# Escherichia coli [8] = experiment: Antimicrobial activity against Escherichia coli ATCC 25922 assessed as diameter of growth inhibition zone at 500 ug/ml after 24 hr by agar well plate method; conditions: ATCC 25922, 24 h, read-out: DIZ
# Aspergillus flavus [9] = experiment: Antimicrobial activity against Aspergillus flavus assessed as diameter of growth inhibition zone at 1000 ug/ml after 72 hr by agar well plate method; conditions: read-out: DIZ
# Escherichia coli [10] = experiment: Antimicrobial activity against Escherichia coli ATCC 25922 assessed as diameter of growth inhibition zone at 1000 ug/ml after 24 hr by agar well plate method; conditions: ATCC 25922, 24 h, read-out: DIZ
# Pseudomonas aeruginosa [11] = experiment: Antimicrobial activity against Pseudomonas aeruginosa ATCC 27853 assessed as diameter of growth inhibition zone at 1000 ug/ml after 24 hr by agar well plate method; conditions: ATCC 27853, 24 h, read-out: DIZ
# Staphylococcus aureus [12] = experiment: Antimicrobial activity against Staphylococcus aureus ATCC 25923 assessed as diameter of growth inhibition zone at 500 ug/ml after 24 hr by agar well plate method; conditions: ATCC 25923, 24 h, read-out: DIZ
Structure (SMILES),zone of inhibition at 500 µg/mL (Candida albicans [1]) [mm],zone of inhibition at 500 µg/mL (Aspergillus flavus [2]) [mm],zone of inhibition at 1000 µg/mL (Staphylococcus aureus [3]) [mm],zone of inhibition at 1000 µg/mL [4] [mm],zone of inhibition at 500 µg/mL [5] [mm],zone of inhibition at 1000 µg/mL (Candida albicans [6]) [mm],zone of inhibition at 500 µg/mL (Pseudomonas aeruginosa [7]) [mm],zone of inhibition at 500 µg/mL (Escherichia coli [8]) [mm],zone of inhibition at 1000 µg/mL (Aspergillus flavus [9]) [mm],zone of inhibition at 1000 µg/mL (Escherichia coli [10]) [mm],zone of inhibition at 1000 µg/mL (Pseudomonas aeruginosa [11]) [mm],zone of inhibition at 500 µg/mL (Staphylococcus aureus [12]) [mm]
COc1ccc(-c2nn(-c3ccccc3)cc2C2CC(c3ccc(SC)cc3)=NN2c2ccccc2)cc1 (centres undefined),0,0,4,0,0,0,2,1,0,2,4,3
COc1ccc(-c2nn(-c3ccccc3)cc2C2CC(c3ccc(Cl)cc3Cl)=NN2c2ccccc2)cc1 (centres undefined),0,0,4,0,0,0,1,2,0,3,4,3
Clc1ccc(-c2nn(-c3ccccc3)cc2C2CC(c3ccc(Cl)cc3Cl)=NN2c2ccccc2)cc1 (centres undefined),2,2,7,5,2,4,6,4,4,6,8,4
Clc1ccc(C2=NN(c3ccccc3)C(c3cn(-c4ccccc4)nc3-c3ccc(Br)cc3)C2)c(Cl)c1 (centres undefined),1,1,8,4,2,3,5,5,4,8,5,6
Clc1ccc(C2=NN(c3ccccc3)C(c3cn(-c4ccccc4)nc3-c3ccccc3)C2)c(Cl)c1 (centres undefined),0,0,0,0,0,0,0,0,0,0,0,0
CSc1ccc(C2=NN(c3ccccc3)C(c3cn(-c4ccccc4)nc3-c3ccc(Br)cc3)C2)cc1 (centres undefined),2,3,9,6,5,4,6,6,4,7,8,7
COc1ccc(-c2nn(-c3ccccc3)cc2C2CC(c3ccc(-c4ccccc4)cc3)=NN2c2ccccc2)cc1 (centres undefined),0,0,4,0,0,0,2,2,0,4,5,2
CSc1ccc(C2=NN(c3ccccc3)C(c3cn(-c4ccccc4)nc3-c3ccccc3)C2)cc1 (centres undefined),0,0,2,0,0,0,2,1,0,3,3,0
CSc1ccc(C2=NN(c3ccccc3)C(c3cn(-c4ccccc4)nc3-c3ccc(Cl)cc3)C2)cc1 (centres undefined),1,2,8,3,1,3,4,4,3,5,7,5
Clc1ccc(-c2nn(-c3ccccc3)cc2C2CC(c3ccc(-c4ccccc4)cc3)=NN2c2ccccc2)cc1 (centres undefined),2,3,8,4,3,5,6,5,5,7,4,6
Brc1ccc(-c2nn(-c3ccccc3)cc2C2CC(c3ccc(-c4ccccc4)cc3)=NN2c2ccccc2)cc1 (centres undefined),4,5,6,4,3,5,5,6,6,9,7,4
OC(Cn1cncn1)(Cn1cncn1)c1ccc(F)cc1F [FLUCONAZOLE],20,10,–,17,15,22,–,–,13,–,–,–
CN[C@@H]1[C@H](O[C@H]2[C@H](O[C@H]3[C@H](O)[C@@H](O)[C@H](N=C(N)N)[C@@H](O)[C@@H]3N=C(N)N)O[C@@H](C)[C@]2(O)C=O)O[C@@H](CO)[C@H](O)[C@H]1O [STREPTOMYCIN],–,–,15,–,–,–,13,10,–,16,16,10
